Experimental data reported in article PMC10622577, “Structural basis for stabilisation of the RAD51 nucleoprotein filament by BRCA2” (Nature Communications, 2023).

What was measured:
RAD51 [1] = molecular target: T1, RAD51 (Homo sapiens, UniProt Q06609); assay: SPR Kd estimation of TR2 for wild-type and mutant RAD51; type: binding; settings: saturation not achieved, would need >30 uM TR2
T1 construct: made in house; host or cells: E. coli BL21(DE3)Rosetta2
T1 sequence (Q06609 2-339): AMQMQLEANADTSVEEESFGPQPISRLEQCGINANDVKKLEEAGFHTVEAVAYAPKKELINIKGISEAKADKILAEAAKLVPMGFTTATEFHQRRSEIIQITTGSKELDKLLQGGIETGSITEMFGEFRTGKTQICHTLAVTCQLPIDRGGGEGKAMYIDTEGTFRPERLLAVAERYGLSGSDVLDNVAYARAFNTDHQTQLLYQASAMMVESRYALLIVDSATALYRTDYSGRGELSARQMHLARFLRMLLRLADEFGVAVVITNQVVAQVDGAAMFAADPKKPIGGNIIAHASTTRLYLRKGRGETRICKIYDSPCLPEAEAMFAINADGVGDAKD
Method: (§1) All binding experiments were performed in CMA buffer: 25 mM HEPES pH 7.4, 100 mM NaCl, 2 mM DTT, 2 mM ATP, 5 mM CaCl2, 5 mM MgCl2. 1 μM RAD51 (wild-type, D184A or D184A, D187A mutant proteins) was injected for 120 seconds followed by buffer for 120 seconds at a flow rate of 10 μl/min. TR2 or BRC4 peptides were then injected in a concentration titration series of 0.1, 0.25, 0.5, 0.75, 1, 2, 3, 5, 7.5, 10 and 15 μM for 120 seconds at a flow rate of […] followed by a dissociation time of 240 seconds. After each injection of BRCA2 peptide, the sensor chip was regenerated with buffer comprising of CMA buffer with 1 M NaCl for 120 seconds at a flow rate of 100 μl/min. All experiments were performed in triplicate.
(§2) For the BRCA2 TR2 titration series, blank-subtracted sensorgrams were used to extract the maximum response accumulated after each TR2 injection. TR2 response accumulation was corrected to account for differences in RAD51 filament formation between runs, by multiplying the maximum response by a scale factor calculated as the ratio between mean RAD51 filament accumulation on each DNA substrate and the mean RAD51 accumulated for each mutant for each triplicate. […]
(§3) consequently the need to inject the TR2 peptide at high concentrations (>30 uM), which would change sample viscosity and affect the refractive index for detection. The Kd values that we obtained based on the measured […]

RAD51 [2] = assay: as above; type: binding, human; settings: no binding saturation, large confidence intervals, statistically unreliable, no numbers given
Method: as §1, §2, §3

Sequence: DDQKNCKKRRALDFLSRLPLPPPVSPICTFVSPAAQKAFQPPRSCGTKY [TR2, BRCA2 TR2 peptide spanning amino acids 3260 to 3308]
- affinity of TR2 for RAD51 (RAD51 [1]): relatively low affinity
- Kd trend, wild-type versus mutant RAD51 (RAD51 [2]): KdwtRAD51 < KdmutRAD51
